The text below walks through data of publication PMC9323132, “Characterization of Two Dehydrogenases from Gluconobacter oxydans Involved in the Transformation of Patulin to Ascladiol” (Toxins, 2022).

In one assay the target is T1, GOX0525 (Gluconobacter oxydans, UniProt Q5FTJ3).
T1 construct: full-length, N-terminal His-tag (pET28a), E. coli LOBSTR-BL21 (DE3), Ni-NTA; about 29 kDa; native N-terminus by primer MTHRVAL
Put plainly: NADPH oxidation at […] nm, Michaelis-Menten fit. It is filed as biochemical. As to conditions: read-out: apparent KM; 250 µM NADPH; pH 6.0 (0.1 M Tris, 0.05 M MES, 0.05 M acetic acid); 25 °C.

For the next assay, the target named is T2, GOX1899 (Gluconobacter oxydans, UniProt Q5FPQ9).
T2 construct: full-length, N-terminal His-tag (pET28a), E. coli LOBSTR-BL21 (DE3), Ni-NTA; about 29 kDa; native N-terminus by primer MTTDNI
Put plainly: NADPH oxidation at […] nm, Michaelis-Menten fit. As to conditions: read-out: apparent KM; 250 µM NADPH; pH 6.0 (0.1 M Tris, 0.05 M MES, 0.05 M acetic acid); 25 °C. The assay is classed as biochemical.

The target in another assay is T3, GOX0716 (Gluconobacter oxydans, UniProt Q5FT03).
T3 construct: full-length in pET28a, whole E. coli LOBSTR-BL21 (DE3) cells; not purified; native N-terminus by primer MADHSI
Put plainly: HPLC of E-ascladiol formation by recombinant E. coli cells. As to conditions: 10 µg/mL patulin; 500 µM NADPH; 20 mM MES pH 5; 30 °C; 24 h. The assay is classed as cell-based, recombinant Escherichia coli.

A further assay deals with T4, GOX1462 (Gluconobacter oxydans, UniProt Q5FQY5).
T4 construct: full-length in pET28a, whole E. coli LOBSTR-BL21 (DE3) cells; not purified (aggregated); native N-terminus by primer MQYRQLG
The description is as above. As to conditions: 10 µg/mL patulin; 500 µM NADPH; 20 mM MES pH 5; 30 °C; 24 h. The assay is classed as cell-based, Escherichia coli.

T3 sequence (Q5FT03 entry or part of it): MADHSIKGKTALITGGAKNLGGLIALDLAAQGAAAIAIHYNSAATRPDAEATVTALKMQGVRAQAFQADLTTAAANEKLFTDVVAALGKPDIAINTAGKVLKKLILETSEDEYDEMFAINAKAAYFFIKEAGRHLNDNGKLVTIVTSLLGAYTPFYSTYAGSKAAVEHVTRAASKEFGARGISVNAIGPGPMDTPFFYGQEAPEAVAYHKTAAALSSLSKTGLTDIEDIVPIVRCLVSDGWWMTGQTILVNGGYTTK
T1 sequence (Q5FTJ3 entry or part of it): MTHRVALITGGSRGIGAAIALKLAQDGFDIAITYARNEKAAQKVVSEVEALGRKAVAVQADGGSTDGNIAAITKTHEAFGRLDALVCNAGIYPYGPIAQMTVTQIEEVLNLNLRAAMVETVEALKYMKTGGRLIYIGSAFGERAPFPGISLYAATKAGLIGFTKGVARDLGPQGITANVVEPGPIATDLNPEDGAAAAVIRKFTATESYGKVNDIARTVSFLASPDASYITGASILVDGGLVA
T2 sequence (Q5FPQ9 entry or part of it): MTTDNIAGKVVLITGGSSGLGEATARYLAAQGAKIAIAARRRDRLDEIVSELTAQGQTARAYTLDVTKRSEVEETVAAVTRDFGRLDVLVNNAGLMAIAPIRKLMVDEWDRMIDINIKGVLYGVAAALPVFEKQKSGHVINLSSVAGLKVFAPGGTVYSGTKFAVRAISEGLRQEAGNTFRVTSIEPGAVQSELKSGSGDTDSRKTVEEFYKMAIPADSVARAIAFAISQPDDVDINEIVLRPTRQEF
T4 sequence (Q5FQY5 entry or part of it): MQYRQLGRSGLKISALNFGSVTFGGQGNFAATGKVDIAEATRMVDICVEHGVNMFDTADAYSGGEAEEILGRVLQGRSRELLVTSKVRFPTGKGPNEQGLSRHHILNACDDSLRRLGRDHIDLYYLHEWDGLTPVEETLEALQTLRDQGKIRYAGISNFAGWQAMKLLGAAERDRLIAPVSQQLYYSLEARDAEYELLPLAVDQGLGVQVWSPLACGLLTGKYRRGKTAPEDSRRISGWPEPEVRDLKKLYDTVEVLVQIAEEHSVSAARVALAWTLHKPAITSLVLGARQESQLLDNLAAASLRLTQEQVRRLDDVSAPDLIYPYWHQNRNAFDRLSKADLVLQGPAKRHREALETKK

A word on the Km: it is the substrate concentration at which the rate is half of its maximum. Regarding `O=C1C=C2C(=CCOC2O)O1` (stereo not shown) [patulin, 4-hydroxy-4H-furo [3,2-c]pyran-2(6H)-one], the results for the Km at GOX0525 and on GOX1899 were 8.64 ± 0.89 mM and 7.26 ± 0.54 mM, respectively. Moreover, the “HPLC of E-ascladiol formation by recombinant E. coli cells” value at GOX0716 is “capable of producing E-ascladiol were those containing GOX0525, GOX1899, GOX1462 and GOX0716”; on GOX1462, “capable of producing E-ascladiol were those containing GOX0525, GOX1899, GOX1462 and GOX0716”.
